# From the NIST ThermoML archive (doi:10.1021/je034023f)
# Numbers after ± are expanded uncertainties.
# Test: Henry's Law constant (molality scale); of the first substance listed, at infinite dilution; mn = molality of the nth substance listed, in mol/kg
# Settings: Liquid, m1 = 0
compound,measurement,setting,value
O=C=O [carbon dioxide] + CCCCn1cc[n+](C)c1.F[P-](F)(F)(F)(F)F,Henry's Law constant,293.15 K,1200 ± 80 kPa·kg/mol
same,Henry's Law constant,313.15 K,1890 ± 80 kPa·kg/mol
same,Henry's Law constant,333.15 K,2700 ± 80 kPa·kg/mol
same,Henry's Law constant,353.15 K,3570 ± 80 kPa·kg/mol
same,Henry's Law constant,373.15 K,4470 ± 80 kPa·kg/mol
same,Henry's Law constant,393.15 K,5490 ± 80 kPa·kg/mol
